According to PubChem BioAssay AID1259407 (Chemical Carcinogenesis Research Information System (CCRIS), 2018):
Active and inactive are the calls of the source. The rule behind the calls is not given here.

Test system: CCRIS mutagenicity, Ames/micronucleus/aberration tests
Experiment: CCRIS mutagenicity studies

Measured: mutagenic call

C=CCc1ccc2c(c1)OCO2
active: Test System: AMES SALMONELLA TYPHIMURIUM, Strain/Indicator: TA1535, Metabolic Activation: RAT, LIVER, S-9, AROCLOR 1254, PAPS, Method: STANDARD PLATE active; positive | Test System: CHINESE HAMSTER V-79, Strain/Indicator: V-79/6-THIOGUANINE, Metabolic Activation: NONE, Method: REPLATING active; positive | Test System: MOUSE LYMPHOMA, Strain/Indicator: L5178Y (TK+/+)/OUABAIN, Metabolic Activation: NONE, Method: SUSPENSION/PLATE active; positive | Test System: MOUSE LYMPHOMA, Strain/Indicator: L5178Y (TK+/+)/OUABAIN, Metabolic Activation: RAT LIVER S-9, AROCLOR 1254, Method: SUSPENSION/PLATE active; positive | Test System: MOUSE LYMPHOMA, Strain/Indicator: L5178Y (TK+/-)/TRIFLUROTHYMIDINE, Metabolic Activation: NONE, Method: SUSPENSION/PLATE active; positive | Test System: MOUSE LYMPHOMA, Strain/Indicator: L5178Y (TK+/TK-), Metabolic Activation: RAT, LIVER, S-9, Method: SUSPENSION/PLATE active; positive | Test System: UDS RAT HEPATOCYTES, Strain/Indicator: THY INCORP, Metabolic Activation: NONE, Method: LIQUID SCINTILLATION COUNTING active; positive
inactive: Test System: AMES SALMONELLA TYPHIMURIUM, Strain/Indicator: TA97, Metabolic Activation: HAMSTER LIVER S-9, AROCLOR 1254 (10%), Method: PREINCUBATION inactive; negative | Test System: AMES SALMONELLA TYPHIMURIUM, Strain/Indicator: TA97, Metabolic Activation: HAMSTER LIVER S-9, AROCLOR 1254 (30%), Method: PREINCUBATION inactive; negative | Test System: AMES SALMONELLA TYPHIMURIUM, Strain/Indicator: TA97, Metabolic Activation: NONE, Method: PREINCUBATION inactive; negative | Test System: AMES SALMONELLA TYPHIMURIUM, Strain/Indicator: TA97, Metabolic Activation: NONE, Method: STANDARD PLATE inactive; negative | Test System: AMES SALMONELLA TYPHIMURIUM, Strain/Indicator: TA97, Metabolic Activation: RAT LIVER S-9, AROCLOR 1254 (10%), Method: PREINCUBATION inactive; negative | Test System: AMES SALMONELLA TYPHIMURIUM, Strain/Indicator: TA97, Metabolic Activation: RAT LIVER S-9, AROCLOR 1254 (30%), Method: PREINCUBATION inactive; negative | Test System: AMES SALMONELLA TYPHIMURIUM, Strain/Indicator: TA97, Metabolic Activation: S-9, Method: STANDARD PLATE inactive; negative | Test System: AMES SALMONELLA TYPHIMURIUM, Strain/Indicator: TA98, Metabolic Activation: HAMSTER LIVER S-9, AROCLOR 1254 (10%), Method: PREINCUBATION inactive; negative | Test System: AMES SALMONELLA TYPHIMURIUM, Strain/Indicator: TA98, Metabolic Activation: HAMSTER LIVER S-9, AROCLOR 1254 (30%), Method: PREINCUBATION inactive; negative | Test System: AMES SALMONELLA TYPHIMURIUM, Strain/Indicator: TA98, Metabolic Activation: NONE, Method: PREINCUBATION inactive; negative | Test System: AMES SALMONELLA TYPHIMURIUM, Strain/Indicator: TA98, Metabolic Activation: NONE, Method: STANDARD PLATE inactive; negative | Test System: AMES SALMONELLA TYPHIMURIUM, Strain/Indicator: TA98, Metabolic Activation: RAT LIVER S-9, AROCLOR 1254 (10%), Method: PREINCUBATION inactive; negative | Test System: AMES SALMONELLA TYPHIMURIUM, Strain/Indicator: TA98, Metabolic Activation: RAT LIVER S-9, AROCLOR 1254 (30%), Method: PREINCUBATION inactive; negative | Test System: AMES SALMONELLA TYPHIMURIUM, Strain/Indicator: TA98, Metabolic Activation: RAT, LIVER, S-9, AROCLOR 1254, Method: STANDARD PLATE inactive; negative | Test System: AMES SALMONELLA TYPHIMURIUM, Strain/Indicator: TA98, Metabolic Activation: S-9, Method: STANDARD PLATE inactive; negative | Test System: AMES SALMONELLA TYPHIMURIUM, Strain/Indicator: TA100, Metabolic Activation: HAMSTER LIVER S-9, AROCLOR 1254 (10%), Method: PREINCUBATION inactive; negative | Test System: AMES SALMONELLA TYPHIMURIUM, Strain/Indicator: TA100, Metabolic Activation: HAMSTER LIVER S-9, AROCLOR 1254 (30%), Method: PREINCUBATION inactive; negative | Test System: AMES SALMONELLA TYPHIMURIUM, Strain/Indicator: TA100, Metabolic Activation: NONE, Method: PREINCUBATION inactive; negative | Test System: AMES SALMONELLA TYPHIMURIUM, Strain/Indicator: TA100, Metabolic Activation: NONE, Method: STANDARD PLATE inactive; negative | Test System: AMES SALMONELLA TYPHIMURIUM, Strain/Indicator: TA100, Metabolic Activation: RAT LIVER S-9, AROCLOR 1254 (10%), Method: PREINCUBATION inactive; negative | Test System: AMES SALMONELLA TYPHIMURIUM, Strain/Indicator: TA100, Metabolic Activation: RAT LIVER S-9, AROCLOR 1254 (30%), Method: PREINCUBATION inactive; negative | Test System: AMES SALMONELLA TYPHIMURIUM, Strain/Indicator: TA100, Metabolic Activation: RAT, LIVER, S-9, AROCLOR 1254, Method: STANDARD PLATE inactive; negative | Test System: AMES SALMONELLA TYPHIMURIUM, Strain/Indicator: TA100, Metabolic Activation: S-9, Method: STANDARD PLATE inactive; negative | Test System: AMES SALMONELLA TYPHIMURIUM, Strain/Indicator: TA102, Metabolic Activation: NONE, Method: STANDARD PLATE inactive; negative | Test System: AMES SALMONELLA TYPHIMURIUM, Strain/Indicator: TA102, Metabolic Activation: RAT LIVER S-9, PHENOBARBITAL AND 5,6-BENZOFLAVONE, Method: STANDARD PLATE inactive; negative | Test System: AMES SALMONELLA TYPHIMURIUM, Strain/Indicator: TA102, Metabolic Activation: S-9, Method: STANDARD PLATE inactive; negative | Test System: AMES SALMONELLA TYPHIMURIUM, Strain/Indicator: TA1535, Metabolic Activation: HAMSTER LIVER S-9, AROCLOR 1254 (10%), Method: PREINCUBATION inactive; negative | Test System: AMES SALMONELLA TYPHIMURIUM, Strain/Indicator: TA1535, Metabolic Activation: HAMSTER LIVER S-9, AROCLOR 1254 (30%), Method: PREINCUBATION inactive; negative | Test System: AMES SALMONELLA TYPHIMURIUM, Strain/Indicator: TA1535, Metabolic Activation: NONE, Method: PREINCUBATION inactive; negative | Test System: AMES SALMONELLA TYPHIMURIUM, Strain/Indicator: TA1535, Metabolic Activation: NONE, Method: STANDARD PLATE inactive; negative | Test System: AMES SALMONELLA TYPHIMURIUM, Strain/Indicator: TA1535, Metabolic Activation: PAPS, Method: STANDARD PLATE inactive; negative | Test System: AMES SALMONELLA TYPHIMURIUM, Strain/Indicator: TA1535, Metabolic Activation: RAT LIVER S-9, AROCLOR 1254 (10%), Method: PREINCUBATION inactive; negative | Test System: AMES SALMONELLA TYPHIMURIUM, Strain/Indicator: TA1535, Metabolic Activation: RAT LIVER S-9, AROCLOR 1254 (30%), Method: PREINCUBATION inactive; negative | Test System: AMES SALMONELLA TYPHIMURIUM, Strain/Indicator: TA1535, Metabolic Activation: RAT, LIVER, S-9, AROCLOR 1254, Method: STANDARD PLATE inactive; negative | Test System: AMES SALMONELLA TYPHIMURIUM, Strain/Indicator: TA1537, Metabolic Activation: NONE, Method: STANDARD PLATE inactive; negative | Test System: AMES SALMONELLA TYPHIMURIUM, Strain/Indicator: TA1537, Metabolic Activation: RAT, LIVER, S-9, AROCLOR 1254, Method: STANDARD PLATE inactive; negative | Test System: AMES SALMONELLA TYPHIMURIUM, Strain/Indicator: TA1538, Metabolic Activation: NONE, Method: STANDARD PLATE inactive; negative | Test System: AMES SALMONELLA TYPHIMURIUM, Strain/Indicator: TA1538, Metabolic Activation: RAT, LIVER, S-9, AROCLOR 1254, Method: STANDARD PLATE inactive; negative | Test System: AMES SALMONELLA TYPHIMURIUM, Strain/Indicator: TA2638, Metabolic Activation: RAT LIVER S-9, PHENOBARBITAL AND 5,6-BENZOFLAVONE, Method: STANDARD PLATE inactive; negative | Test System: CHINESE HAMSTER OVARY, Strain/Indicator: CHO/6-THIOGUANINE, Metabolic Activation: HAMSTER EMBRYO CELL-MEDIATED inactive; negative | Test System: CHINESE HAMSTER OVARY, Strain/Indicator: CHO/6-THIOGUANINE, Metabolic Activation: NONE inactive; negative | Test System: CHINESE HAMSTER OVARY, Strain/Indicator: CHO/OUABAIN, Metabolic Activation: HAMSTER EMBRYO CELL-MEDIATED inactive; negative | Test System: CHINESE HAMSTER OVARY, Strain/Indicator: CHO/OUABAIN, Metabolic Activation: NONE inactive; negative | Test System: CHINESE HAMSTER V-79, Strain/Indicator: V-79 (HGPRT)/6-THIOGUANINE, Metabolic Activation: NONE inactive; negative | Test System: CHINESE HAMSTER V-79, Strain/Indicator: V-79 (HGPRT)/6-THIOGUANINE, Metabolic Activation: RAT, LIVER, S-9, PHENOBARBITAL AND BETA-NAPHTHOFLAVONE inactive; negative | Test System: CHINESE HAMSTER V-79, Strain/Indicator: V-79/OUABAIN, Metabolic Activation: HAMSTER EMBRYO CELL-MEDIATED inactive; negative | Test System: CHINESE HAMSTER V-79, Strain/Indicator: V-79/OUABAIN, Metabolic Activation: NONE inactive; negative | Test System: CHINESE HAMSTER V-79, Strain/Indicator: V-79/OUABAIN, Metabolic Activation: RAT, LIVER, S-15, PHENOBARBITAL AND 5,6-BENZOFLAVONE inactive; negative | Test System: E. COLI, Strain/Indicator: WP2 (PKM101), Metabolic Activation: RAT LIVER S-9, PHENOBARBITAL AND 5,6-BENZOFLAVONE, Method: STANDARD PLATE inactive; negative | Test System: E. COLI, Strain/Indicator: WP2 UVRA (PKM101), Metabolic Activation: RAT LIVER S-9, PHENOBARBITAL AND 5,6-BENZOFLAVONE, Method: STANDARD PLATE inactive; negative | Test System: MOUSE LYMPHOMA, Strain/Indicator: L5178Y (TK+/-)/TRIFLUROTHYMIDINE, Metabolic Activation: RAT LIVER S-9, AROCLOR 1254, Method: SUSPENSION/PLATE inactive; negative | Test System: MOUSE LYMPHOMA, Strain/Indicator: L5178Y (TK+/TK-), Metabolic Activation: NONE, Method: SUSPENSION/PLATE inactive; negative
